Experimental data from patent US20060019971A1, “Treatment of cardiovascular disease with inhibitors of p38 kinase” (priority 2003, published 2006).

Tested on: ET-1 mRNA in HPBMCs
Assay: ET-1 gene expression in HPBMCs, real-time PCR
Type: cell-based, human
Settings: 10 μg/ml CRP added to 10% FCS, HPBMCs, 6 hours
Description: 5×10^6 HPBMCs were plated in 6-well. After 1 hour medium was removed and cells were treated with vehicle or 1 μM P38 INHIBITOR in RPMI 1640 medium. After 1 hour cells were stimulated with 10% FCS only or 10 μg/ml CRP plus 10% FCS. After 6 hours RNA was extracted from the cells and ET-1 gene expression level was determined by real-time PCR as described in the Experimental section.
Cryopreserved human peripheral blood monocytes (HPBMCs, from Biowitker, Walkersvill, Md.) were thawed and washed twice in RPMI 1640. Cells were plated in tissue culture plates and incubated in 5% CO2 at 37 C. After 1 hr media were removed and cells were treated with various treatments. After 2 to 20 hours conditioned media and/or cell lysates were collected for the analyses of secreted cytokines, protein or mRNA expression. 10 μg/ml of purified human CRP (Calbiochem, San Diego, Calif.) was used in most of the treatments. In some experiments fetal calf serum (FCS from ATCC) was added to a final concentration of 10% together with CRP. In the examples provided herein, including those assessing the effects of p38 antagonism, cells were pre-treated with SD, a p38 small molecule inhibitor (Compound 162 in Table A) for 1 hour prior to CRP treatment as described above. In a parallel series of experiments, the effect of vehicle (DMSO) was tested. For TaqMan analyses of various gene expression cells were lysed in ice-cold RLT lysis buffer (Qiagen, Valencia, Calif.) and the lysates were kept in −80° C. until the analyses. […]
RNA was extracted from the cells using Qiagen RNA extraction kit according to the manufacturer's instruction. The expression of pro-inflammatory genes IL-1β, IL-6, IL-8, TNFα, COX-2, ET-1, TF were assessed by real-time PCR. […]
Real-time RT-PCR was performed in a two-step manner. cDNA synthesis and real-time detection were carried out in a PTC-100™ Thermal Cycler (MJ Research Inc, Waltham, Mass.) and an ABI Prism™ 7700 Sequence Detection System (Applied Biosystems, Foster City, Calif.), respectively. […] Relative quantitation of gene expression was performed using the relative standard curve method. […]

Molecule	augmentation of ET-1 gene expression
CRP: purified human CRP (Calbiochem), stimulus applied at 10 μg/ml to HPBMCs (protein, UniProt P02741 19-224, looked up) C-reactive protein: QTDMSRKAFVFPKESDTSYVSLKAPLTKPLKAFTVCLHFYTELSSTRGYSIFSYATKRQDNEILIFWSKDIGYSFTVGGSEILFEVPEVTVAPVHICTSWESASGIVEFWVDGKPRVRKSLKKGYTVGAEASIILGQEQDSFGGNFEGSQSLVGDIGNVNMWDFVLSPDEINTIYLGGPFSPNVLNWRALKYEVQGEVFTKPQLWP	1.7 fold

Biological target: T1, p38 MAP kinase (Homo sapiens, UniProt Q16539)
T1 construct: expressed in transfected cells; kinase immunoprecipitated from lysates
T1 sequence (Q16539 whole entry): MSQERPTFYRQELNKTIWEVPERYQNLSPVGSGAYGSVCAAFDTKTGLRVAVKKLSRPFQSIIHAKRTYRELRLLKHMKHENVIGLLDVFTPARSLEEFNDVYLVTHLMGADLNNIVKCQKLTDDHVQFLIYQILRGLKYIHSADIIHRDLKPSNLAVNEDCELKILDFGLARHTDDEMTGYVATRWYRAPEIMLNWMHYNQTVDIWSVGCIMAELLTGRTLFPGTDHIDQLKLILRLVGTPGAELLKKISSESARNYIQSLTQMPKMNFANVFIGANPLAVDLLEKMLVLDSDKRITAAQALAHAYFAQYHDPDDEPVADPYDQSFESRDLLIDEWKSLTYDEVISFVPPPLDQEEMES
Assay: p38 MAP kinase phosphorylation assay (similar to Kumar)
Type: biochemical
Settings: assay similar to the phosphorylation assay (Kumar)
Description: Alternative assays involving in vitro analysis of potential inhibitors include those where cells (HeLa) transfected with DNA coding for relevant kinases can be activated with substances such as sorbitol, IL-1, TNF, or PMA (phorbol myristate acetate). After immunoprecipitation of cell lysates, equal aliquots of immune complexes of the kinases are pre-incubated for an adequate time with a specific concentration of the potential inhibitor followed by addition of kinase substrate buffer mix containing labeled ATP and GST-ATF2 or MBP. After incubation, kinase reactions are ceased by the addition of SDS loading buffer. Phosphorylated substrate is resolved through SDS-PAGE and visualized and quantitated in a phosphorimager. Both p38 regulation, in terms of phosphorylation, and IC50 values can be determined by quantitation. See, for example Kumar,S., McDonnell, P., Gum, R., Hand, A., Lee, J., and Young, P. (1997) Biochem. Biophys. Res. Commun. 235, 533-538.

p38 MAP kinase activity	Molecule
exhibit p38 MAP kinase activity	COc1cc2c(cc1C(=O)N1CCC(Cc3ccc(F)cc3)CC1)c(C(=O)C(=O)N1CCN(C)CC1)cn2C [Compound 3]
exhibit p38 MAP kinase activity	COc1cc2[nH]cc(C(=O)C(=O)N(C)C)c2cc1C(=O)N1CC(C)N(Cc2ccc(F)cc2)CC1C (centres unmarked) [Compound 154]
exhibit p38 MAP kinase activity	COc1cc2[nH]cc(C(=O)C(=O)N3CCOCC3)c2cc1C(=O)N1CCC(Cc2ccc(F)cc2)CC1 [Compound 141]
exhibit p38 MAP kinase activity	Cn1cc(C(=O)C(=O)N2CCCC2)c2cc(C(=O)N3CCC(Cc4ccc(F)cc4)CC3)c(Cl)cc21 [Compound 84]
exhibit p38 MAP kinase activity	C[C@@H]1CN(Cc2ccc(F)cc2)[C@@H](C)CN1C(=O)c1cc2c(C(=O)C(=O)N3CCOCC3)cn(C)c2cc1Cl [Compound 96]
exhibit p38 MAP kinase activity	COc1cc2c(cc1C(=O)N1CCC(=Cc3ccc(F)cc3)CC1)c(C(=O)C(=O)N(C)C)cn2C [Compound 67]
exhibit p38 MAP kinase activity	Cc1[nH]c2cc(Cl)c(C(=O)N3CCC(Cc4ccc(F)cc4)CC3)cc2c1C(=O)C(=O)N1CCN(C)CC1 [Compound 169]
exhibit p38 MAP kinase activity	COc1cc2c(cc1C(=O)N1C[C@H](C)N(Cc3ccc(F)cc3)C[C@@H]1C)c(C(=O)C(=O)N(C)C)cn2C [Compound 15]
exhibit p38 MAP kinase activity	COc1cc2c(cc1C(=O)N1CCC(Cc3ccc(F)cc3)CC1)c(C(=O)C(=O)O)cn2C [Compound 2]

Molecule	p38 MAP kinase activity
COCn1cc(C(=O)C(=O)N(C)C)c2cc(C(=O)N3C[C@H](C)N(Cc4ccc(F)cc4)C[C@H]3C)c(OC)cc21 [Compound 92]	exhibit p38 MAP kinase activity
